# Results published in ChEMBL document CHEMBL3639072, “Heterocyclic derivatives and their use in the treatment of neurological disorders” (2014).
# pIC50: −log10 of the molar value.
# Columns and labels:
# Beta-secretase 2 = target: T1, Beta-secretase 2 (Homo sapiens, UniProt Q9Y5Z0)
# T1 sequence (Q9Y5Z0 whole entry): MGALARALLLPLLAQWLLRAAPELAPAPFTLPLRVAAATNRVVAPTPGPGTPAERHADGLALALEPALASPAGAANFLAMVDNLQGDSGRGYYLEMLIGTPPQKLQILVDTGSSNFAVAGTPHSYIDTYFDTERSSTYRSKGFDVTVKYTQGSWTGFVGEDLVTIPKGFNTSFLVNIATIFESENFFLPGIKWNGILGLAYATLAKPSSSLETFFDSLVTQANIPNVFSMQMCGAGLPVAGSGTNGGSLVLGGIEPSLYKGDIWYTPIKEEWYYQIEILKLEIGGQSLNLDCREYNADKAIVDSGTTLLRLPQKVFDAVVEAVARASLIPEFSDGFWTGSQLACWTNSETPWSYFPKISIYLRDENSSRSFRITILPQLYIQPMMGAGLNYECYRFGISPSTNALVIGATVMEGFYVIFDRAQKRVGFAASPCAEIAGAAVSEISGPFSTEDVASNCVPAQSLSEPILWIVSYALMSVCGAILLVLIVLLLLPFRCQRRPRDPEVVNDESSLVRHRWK
# Beta-secretase 1 = Beta-secretase 1 (Homo sapiens, UniProt P56817)
# Beta-secretase 1, sequence (P56817 whole entry): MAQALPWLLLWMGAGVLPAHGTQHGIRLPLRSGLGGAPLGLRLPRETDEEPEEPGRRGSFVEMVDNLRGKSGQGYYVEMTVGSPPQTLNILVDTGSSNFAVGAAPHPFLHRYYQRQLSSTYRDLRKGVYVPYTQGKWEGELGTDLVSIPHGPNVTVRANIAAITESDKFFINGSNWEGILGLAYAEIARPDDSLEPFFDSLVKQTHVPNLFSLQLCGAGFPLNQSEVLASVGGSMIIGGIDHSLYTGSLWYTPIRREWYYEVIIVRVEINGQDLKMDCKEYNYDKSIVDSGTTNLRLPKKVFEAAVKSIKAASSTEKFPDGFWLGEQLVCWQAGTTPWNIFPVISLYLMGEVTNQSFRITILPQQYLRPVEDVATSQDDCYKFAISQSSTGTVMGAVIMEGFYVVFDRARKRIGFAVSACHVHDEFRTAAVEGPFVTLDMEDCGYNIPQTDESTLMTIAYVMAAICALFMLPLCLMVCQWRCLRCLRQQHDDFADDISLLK
Compound,pIC50 (Beta-secretase 2),pIC50 (Beta-secretase 1)
C[C@@]1(c2nc(NC(=O)c3ncc(OCCCF)nc3N)ccc2F)CO[C@@](C)(C(F)(F)F)C(N)=N1,6.00,6.70
Cc1cnc(C(=O)Nc2ccc(F)c([C@]3(C)CO[C@@](C)(C(F)(F)F)C(N)=N3)n2)c(C)n1,6.89,6.64
